The values that follow come from patent US4292317A, “1,4-Dihydro-quinoline-3-carboxylic acid derivatives, process for their preparation and compositions containing them” (Laboratorie Roger Bellon, priority 1977, dated 1981).

For one experiment, the system named is Staph. aureus 50,774. The experiment can be described thus: Systemic infection in mice. The experiment is classed as in vivo. The conditions noted are these: Staphylococcus aureus, po, 336 h. The procedure:
(§1) The activity of the compounds according to the invention against systemic infections in mice, caused by Staphylococcus 50,774, Streptococcus pyogenes A 65, Pseudomonas aeruginosa No. 12 and Escherichia coli P 5101, has been studied.
(§2) The infections were set up by intraperitoneal injection of a suspension of the bacterial culture corresponding to the germ studied. The products were administered orally at the time of injection, and 6 hours later. […] Aureus and for 7 days for the other germs.
(§3) Oxolinic acid was used as the reference substance.

In the next experiment the test system is Strept. pyogenes A. 65. The experiment can be described thus: Systemic infection in mice. The experiment is classed as in vivo. The following applies: Streptococcus pyogenes, A.65, po, 168 h. As to the method:
as §1, §2, §3

For experiment [1], the system named is Pseudomonas aeruginosa No. 12. The experiment can be described thus: Systemic infection in mice. The experiment is classed as in vivo. The following applies: NO.12, po, 168 h. The procedure:
as §1, §2, §3

Another experiment deals with Escherichia coli P 5101. The experiment can be described thus: Systemic infection in mice. Type of experiment: in vivo. The conditions noted are these: P5101, po, 168 h. The procedure: as §1, §2, §3
The test system of a further experiment is Salm. typhi 0901. The experiment can be described thus: microbe, parasite or virus in culture. Type of experiment: cell-based. The following applies: Salmonella enterica, 18 h; Table 2; Salm. typhi 0901 (Gram negative). The procedure: (§4) After sterilisation at 120° C., the pH was 6.8.
(§5) The minimum inhibitory concentrations (M.I.C.) were determined by dilution of the test compounds in this mixture, the concentration ranging from 0.05 to 100 μg/cm^3 in a geometric progression with a factor of 2.
(§6) The inoculation of the dishes was carried out by means of a multiple inoculator with 10^-3 dilutions of 18 hour old broth cultures.
(§7) The dishes were placed in an oven at 37° C. and the readings were taken afer an incubation time of 18 hours. The M.I.C. was taken as the lowest concentration which inhibited a culture.

For the next experiment, the system named is Serratia. The experiment can be described thus: M.I.C. in vitro, nutrient agar dilution. The experiment is classed as cell-based. The conditions noted are these: 18 h, Table 2, Berratia (Gram negative), read-out: M.I.C. As to the method: as §4, §5, §6, §7
For a further experiment, the system named is Pr. mirabilis Nig. The experiment can be described thus: M.I.C. in vitro, nutrient agar dilution. The experiment is classed as cell-based. The following applies: Proteus mirabilis, 18 h; Table 2; Pr. mirabilis Nig (Gram negative); read-out: M.I.C. The procedure: as §4, §5, §6, §7
For another experiment, the system named is Strepto A 561. The experiment can be described thus: M.I.C. in vitro, nutrient agar dilution. The experiment is classed as cell-based. The conditions noted are these: 18 h; Table 2; Strepto A 561 (Gram positive). As to the method: as §4, §5, §6, §7
A further experiment concerns S. oranienburg 1066. The experiment can be described thus: M.I.C. in vitro, nutrient agar dilution. The experiment is classed as cell-based. The conditions noted are these: Salmonella enterica, 18 h; Table 2; S. oranienburg 1066 (Gram negative); read-out: M.I.C. As to the method: as §4, §5, §6, §7
The test system of a further experiment is Strepto D.M. 19. The experiment can be described thus: M.I.C. in vitro, nutrient agar dilution. The experiment is classed as cell-based. The conditions noted are these: 18 h; Table 2; Strepto D.M. 19 (Gram positive); read-out: M.I.C. The procedure:
as §4, §5, §6, §7

The next experiment deals with Staph. 9.144. The experiment can be described thus: M.I.C. in vitro, nutrient agar dilution. The following applies: 18 h; Table 2; Staph. 9.144 (Gram positive); read-out: M.I.C. Type of experiment: cell-based. The procedure:
as §4, §5, §6, §7

For the next experiment, the system named is Arizona 6.211. The experiment can be described thus: M.I.C. in vitro, nutrient agar dilution. The experiment is classed as cell-based. The following applies: 18 h; Table 2; Arizona 6.211 (Gram negative); read-out: M.I.C. As to the method:
as §4, §5, §6, §7

For the next experiment, the system named is B. subtilis. The experiment can be described thus: M.I.C. in vitro, nutrient agar dilution. The experiment is classed as cell-based. The conditions noted are these: Bacillus subtilis, 18 h; Table 2; B. subtilis (Gram positive); read-out: M.I.C. The procedure:
as §4, §5, §6, §7

Another experiment has as its system Sh. sonnei I.P.S. The experiment can be described thus: M.I.C. in vitro, nutrient agar dilution. Type of experiment: cell-based. The conditions noted are these: Shigella sonnei, 18 h; Table 2; Sh. sonnei I.P.S. (Gram negative); read-out: M.I.C. As to the method: as §4, §5, §6, §7
A further experiment relates to Esch. coli 95 I.S.M. The experiment can be described thus: M.I.C. in vitro, nutrient agar dilution. The conditions noted are these: Escherichia coli, 18 h; Table 2; Esch. coli 95 I.S.M. (Gram negative); read-out: M.I.C. The experiment is classed as cell-based. The procedure: as §4, §5, §6, §7
For the next experiment, the system named is Pr. vulgaris 12-53. The experiment can be described thus: M.I.C. in vitro, nutrient agar dilution. The experiment is classed as cell-based. The following applies: Proteus vulgaris, 1253, 18 h; Table 2; Pr. vulgaris 12-53 (Gram negative); read-out: M.I.C. As to the method: as §4, §5, §6, §7
The subject of the next experiment is Providentia 0223. The experiment can be described thus: M.I.C. in vitro, nutrient agar dilution. The experiment is classed as cell-based. The following applies: 18 h; Table 2; Providentia 0223 (Gram negative); read-out: M.I.C. The procedure:
as §4, §5, §6, §7

Another experiment relates to Bord. bronchis. 4.617. The experiment can be described thus: M.I.C. in vitro, nutrient agar dilution. Type of experiment: cell-based. The conditions noted are these: 18 h; Table 2; Bord. bronchis. 4.617 (Gram negative); read-out: M.I.C. As to the method:
as §4, §5, §6, §7

For another experiment, the system named is Ps. aeruginosa 72.345. The experiment can be described thus: M.I.C. in vitro, nutrient agar dilution. The experiment is classed as cell-based. The conditions noted are these: Pseudomonas aeruginosa, 18 h; Table 2; Ps. aeruginosa 72.345 (Gram negative); read-out: M.I.C. The procedure:
as §4, §5, §6, §7

The next experiment relates to S. enteritidis Danysz. The experiment can be described thus: M.I.C. in vitro, nutrient agar dilution. The experiment is classed as cell-based. The conditions noted are these: Salmonella enterica, 18 h; Table 2; S. enteritidis Danysz (Gram negative); read-out: M.I.C. As to the method:
as §4, §5, §6, §7

The test system of another experiment is Esch. coli 54.127 O.M.S. The experiment can be described thus: M.I.C. in vitro, nutrient agar dilution. The experiment is classed as cell-based. The following applies: Escherichia coli, 18 h; Table 2; Esch. coli 54.127 O.M.S. (Gram negative); read-out: M.I.C. The procedure:
as §4, §5, §6, §7

For the next experiment, the system named is Pr. morganii A.236. The experiment can be described thus: M.I.C. in vitro, nutrient agar dilution. The conditions noted are these: Morganella morganii, 18 h; Table 2; Pr. morganii A.236 (Gram negative); read-out: M.I.C. The experiment is classed as cell-based. The procedure:
as §4, §5, §6, §7

A further experiment concerns Staph. 209 P. The experiment can be described thus: M.I.C. in vitro, nutrient agar dilution. The conditions noted are these: 18 h; Table 2; Staph. 209 P (Gram positive); read-out: M.I.C. Type of experiment: cell-based. The procedure: as §4, §5, §6, §7
Another experiment relates to Klebs. pneum. 10.031. The experiment can be described thus: M.I.C. in vitro, nutrient agar dilution. Type of experiment: cell-based. The following applies: 18 h; Table 2; Klebs. pneum. 10.031 (Gram negative); read-out: M.I.C. The procedure:
as §4, §5, §6, §7

A further experiment concerns Ps. aeruginosa A.22. The experiment can be described thus: M.I.C. in vitro, nutrient agar dilution. The conditions noted are these: Pseudomonas aeruginosa, 18 h; Table 2; Ps. aeruginosa A.22 (Gram negative); read-out: M.I.C. The experiment is classed as cell-based. As to the method:
as §4, §5, §6, §7

The subject of a further experiment is Esch. coli 111 B4. The experiment can be described thus: M.I.C. in vitro, nutrient agar dilution. The experiment is classed as cell-based. The following applies: Escherichia coli, 18 h; Table 2; Esch. coli 111 B4 (Gram negative). The procedure:
as §4, §5, §6, §7

Converted amounts (≈) assume the structure as drawn. A value given as a limit tells only on which side of the number the result lay.

Turning to `CCn1cc(C(=O)O)c(=O)c2cc(F)c(N3CCN(C)CC3)cc21` [Example 20, 1-Ethyl-6-fluoro-7-(4-methylpiperazinyl)-4-oxo-1,4-dihydro-quinoline-3-carboxylic acid], the ED50 in the experiment with Staph. aureus 50,774 amounted to 2.9 mg/kg; with Strept. pyogenes A. 65 it was 65 mg/kg; in experiment [1] it was 7.8 mg/kg; with Escherichia coli P 5101, 1.8 mg/kg. The ED90 came to 9.3 mg/kg in the experiment on Staph. aureus 50,774, 103 mg/kg in the experiment on Strept. pyogenes A. 65, 11.5 mg/kg in experiment [1] and 2.8 mg/kg with Escherichia coli P 5101.
As to `CCn1cc(C(=O)O)c(=O)c2ccc(N3CCN(C)CC3)cc21` [Example T1, 1-ethyl-7-(4-methylpiperazinyl)-4-oxo-1,4-dihydro-quinoline-3-carboxylic acid, reference compound], the MIC in the experiment on Salm. typhi 0901 was 3.1 µg/mL (≈ 9.83 µM); in the experiment with Serratia, 12.5 µg/mL (≈ 39.6 µM); in the experiment with Pr. mirabilis Nig, 3.1 µg/mL (≈ 9.83 µM); against Strepto A 561, 50 µg/mL (≈ 159 µM); with S. oranienburg 1066, greater than 100 µg/mL; in the experiment on Strepto D.M. 19, 50 µg/mL (≈ 159 µM). In addition, the MIC amounted to 6.2 µg/mL (≈ 19.7 µM) in the experiment on Staph. 9.144; 1.6 µg/mL (≈ 5.07 µM) in the experiment with Arizona 6.211; 1.6 µg/mL (≈ 5.07 µM) in the experiment on B. subtilis; 1.6 µg/mL (≈ 5.07 µM) in the experiment with Sh. sonnei I.P.S.; 0.8 µg/mL (≈ 2.54 µM) with Esch. coli 95 I.S.M.; 3.1 µg/mL (≈ 9.83 µM) in the experiment with Pr. vulgaris 12-53. In addition, the MIC came out at 100 µg/mL (≈ 317 µM) with Providentia 0223; 25 µg/mL (≈ 79.3 µM) with Bord. bronchis. 4.617; 12.5 µg/mL (≈ 39.6 µM) with Ps. aeruginosa 72.345; 3.1 µg/mL (≈ 9.83 µM) in the experiment with S. enteritidis Danysz; 1.6 µg/mL (≈ 5.07 µM) with Esch. coli 54.127 O.M.S.; 0.8 µg/mL (≈ 2.54 µM) with Pr. morganii A.236. The MIC was 3.1 µg/mL (≈ 9.83 µM) in the experiment with Staph. 209 P, 0.8 µg/mL (≈ 2.54 µM) in the experiment on Klebs. pneum. 10.031, 12.5 µg/mL (≈ 39.6 µM) in the experiment with Ps. aeruginosa A.22 and 1.6 µg/mL (≈ 5.07 µM) in the experiment on Esch. coli 111 B4.
With `CCn1cc(C(=O)O)c(=O)c2ccc(N3CCN(CCO)CC3)cc21` [Example T4, reference compound], the MIC was 25 µg/mL (≈ 72.4 µM) with Salm. typhi 0901; greater than 100 µg/mL in the experiment on Serratia; 50 µg/mL (≈ 145 µM) with Pr. mirabilis Nig; greater than 100 µg/mL in the experiment on Strepto A 561; greater than 100 µg/mL in the experiment with S. oranienburg 1066; 100 µg/mL (≈ 290 µM) with Strepto D.M. 19. Besides, the MIC in the experiment on Staph. 9.144 was 3.1 µg/mL (≈ 8.98 µM); in the experiment on Arizona 6.211, 12.5 µg/mL (≈ 36.2 µM); in the experiment on B. subtilis, 3.1 µg/mL (≈ 8.98 µM); in the experiment with Sh. sonnei I.P.S., 6.2 µg/mL (≈ 18 µM); in the experiment on Esch. coli 95 I.S.M., 6.2 µg/mL (≈ 18 µM); in the experiment with Pr. vulgaris 12-53, 25 µg/mL (≈ 72.4 µM). In addition, the MIC was greater than 100 µg/mL in the experiment on Providentia 0223; 100 µg/mL (≈ 290 µM) in the experiment with Bord. bronchis. 4.617; 100 µg/mL (≈ 290 µM) in the experiment on Ps. aeruginosa 72.345; 12.5 µg/mL (≈ 36.2 µM) in the experiment with S. enteritidis Danysz; 6.2 µg/mL (≈ 18 µM) with Esch. coli 54.127 O.M.S.; 3.1 µg/mL (≈ 8.98 µM) in the experiment with Pr. morganii A.236. Also, the MIC in the experiment with Staph. 209 P stood at 6.2 µg/mL (≈ 18 µM); with Klebs. pneum. 10.031 it was 3.1 µg/mL (≈ 8.98 µM); in the experiment on Ps. aeruginosa A.22, 100 µg/mL (≈ 290 µM); with Esch. coli 111 B4, 6.2 µg/mL (≈ 18 µM).
